The numbers were not newly measured in patent US20250241356A1, “ORAL COMPOSITION COMPRISING RECEPTOR MODULATOR” (NICOVENTURES TRADING LIMITED, priority 2022, published 2025), which cites them from elsewhere.

Structures are written as SMILES. Where two headings read alike, the source gives them in different places.

The target in one series is TRPM8 (Mus musculus, UniProt Q8R4D5).
Sequence of TRPM8 (Q8R4D5 whole entry): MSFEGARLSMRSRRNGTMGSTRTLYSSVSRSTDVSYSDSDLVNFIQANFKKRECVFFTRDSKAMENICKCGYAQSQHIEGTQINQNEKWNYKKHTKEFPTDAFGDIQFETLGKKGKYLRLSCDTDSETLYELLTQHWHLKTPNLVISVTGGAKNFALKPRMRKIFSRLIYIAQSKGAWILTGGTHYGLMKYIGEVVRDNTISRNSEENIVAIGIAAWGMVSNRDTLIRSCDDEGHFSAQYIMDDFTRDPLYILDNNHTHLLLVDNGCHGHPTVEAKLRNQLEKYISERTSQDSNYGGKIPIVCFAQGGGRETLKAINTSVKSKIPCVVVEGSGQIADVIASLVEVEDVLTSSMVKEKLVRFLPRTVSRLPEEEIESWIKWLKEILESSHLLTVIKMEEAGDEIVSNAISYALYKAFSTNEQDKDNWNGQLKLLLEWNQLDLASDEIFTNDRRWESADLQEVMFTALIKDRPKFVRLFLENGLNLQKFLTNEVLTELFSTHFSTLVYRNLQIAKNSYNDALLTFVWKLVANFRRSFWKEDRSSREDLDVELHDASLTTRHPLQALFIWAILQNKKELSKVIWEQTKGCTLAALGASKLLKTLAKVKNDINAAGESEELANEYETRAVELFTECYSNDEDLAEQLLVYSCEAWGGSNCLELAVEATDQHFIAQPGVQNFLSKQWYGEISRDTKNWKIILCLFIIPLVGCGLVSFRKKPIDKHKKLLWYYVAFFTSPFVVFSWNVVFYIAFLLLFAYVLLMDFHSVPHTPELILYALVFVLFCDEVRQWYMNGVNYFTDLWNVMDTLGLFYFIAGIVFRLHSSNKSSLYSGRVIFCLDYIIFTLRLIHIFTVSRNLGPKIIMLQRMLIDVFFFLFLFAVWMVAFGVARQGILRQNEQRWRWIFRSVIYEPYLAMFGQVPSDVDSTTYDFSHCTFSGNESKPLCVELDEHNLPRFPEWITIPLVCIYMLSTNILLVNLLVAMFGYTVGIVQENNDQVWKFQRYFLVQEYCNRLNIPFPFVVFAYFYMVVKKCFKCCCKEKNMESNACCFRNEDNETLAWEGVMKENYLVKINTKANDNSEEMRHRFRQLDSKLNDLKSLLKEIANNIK

Regarding `CC(/C=C/C=C(C)/C=C/C(=O)O)=C\C=C\C=C(C)\C=C\C=C(C)\C=C\C(=O)O` (stereo in doubt) [norbixin, (2E,4E,6E,8E,10E,12E,14E,16E,18E)-4,8,13,17-tetramethylicosa-2,4,6,8,10,12,14,16,18-nonaenedioic acid], the solubility in water result is “water-soluble”.

As for `COC(=O)/C=C/C(C)=C\C=C\C(C)=C\C=C\C=C(C)\C=C\C=C(C)\C=C\C(=O)O` [bixin, (2E,4E,6E,8E,10E,12E,14E,16Z,18E)-20-methoxy-4,8,13,17-tetramethyl-20-oxoicosa-2,4,6,8,10,12,14,16,18-nonaenoic acid], the “solubility in fats and alcohols” value was “soluble in fats and alcohols”; the solubility in water result is “insoluble in water”. Further, the “chemical stability when isolated” value (converts via isomerization into trans-bixin (β-bixin)) is reported as “chemically unstable when isolated”.

As to `O=C1NC(c2cccc([N+](=O)[O-])c2)=CCN1c1ccccc1O` [icilin, 1-(2-hydroxyphenyl)-4-(3-nitrophenyl)-3,6-dihydropyrimidin-2-one], the values for the responses to icilin result on TRPM8 (extracellular [H+] increased from pH 7.3 to approximately pH 6) and at TRPM8 (standard physiological solutions of pH 7.3) were “abolished” and “evokes [Ca2+] dependent responses”, respectively.
